Experimental data as given in US9340507B2, “Substituted 4-pyridones and their use as inhibitors of neutrophil elastase activity” (Boehringer Ingelheim International GmbH, priority 2012, dated 2016).
pIC50: −log10 of the molar value.

The compounds below were run against Human neutrophil elastase (Homo sapiens (Human), UniProt P08246) (assay: Human Neutrophil Elastase Assay). Conditions: substrate MeOSuc-Ala-Ala-Pro-Val-AMC 250 μM, pH 7.5, fluorescence.
Format: biochemical
Method: Human Neutrophil Elastase Assay
All other materials were of the highest grade commercially available.
The following buffers were used: Compound buffer: 100 mM Tris, 500 mM NaCl, adjusted to pH 7.5; Assay buffer: 100 mM Tris, 500 mM NaCl, adjusted to pH 7.5, containing 0.01% BSA.
Assay conditions: Test compounds were prediluted in DMSO and subsequently in compound buffer (5% DMSO final). […] After inactivation of the enzyme, fluorescence intensities were measured at 380 nm excitation and 460 nm emission wavelengths.
Each plate contains wells with a high value control (DMSO+enzyme+substrate) and wells with a low value control (DMSO+inactivated enzyme+substrate). IC50 values were estimated using a sigmoidal concentration response curve with variable slope. Means of low values were taken as 0%, means of high values as 100%. IC50 values of selected compound in the Neutrophil Elastase assay: […]

Chain of Human neutrophil elastase (P08246 30-267): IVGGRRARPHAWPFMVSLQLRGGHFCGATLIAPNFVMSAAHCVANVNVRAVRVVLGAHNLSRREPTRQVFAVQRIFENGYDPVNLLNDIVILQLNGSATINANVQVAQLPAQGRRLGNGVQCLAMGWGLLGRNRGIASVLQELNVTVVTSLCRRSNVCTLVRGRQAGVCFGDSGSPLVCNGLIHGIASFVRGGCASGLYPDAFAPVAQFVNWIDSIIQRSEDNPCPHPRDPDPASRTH

In order of rising pIC50:
1. CC[C@H](C)n1cc(C(=O)NCc2ccc(S(C)(=O)=O)cn2)c(=O)c(-c2ccnc(C(F)(F)F)c2)c1C [Example 20.3, (S)-1-sec-Butyl-2-methyl-4-oxo-2′-trifluoromethyl-1,4-dihydro-[3,4]bipyridinyl-5-carboxylic acid (5-methanesulfonyl-pyridin-2-ylmethyl)-amide]  7.20
2. Cc1nnc(CNC(=O)c2cn(C3CCC3)c(C)c(-c3cccc(C(F)(F)F)c3)c2=O)o1 [Example 24.1, 1-Cyclobutyl-6-methyl-4-oxo-5-(3-trifluoromethyl-phenyl)-1,4-dihydro-pyridine-3-carboxylic acid (5-methyl-[1,3,4]oxadiazol-2-ylmethyl)-amide]  7.24
3. Cc1nnc(CNC(=O)c2cn(C3CCC3)c(C)c(-c3cccc(C(F)F)c3)c2=O)o1 [Example 24.2, 1-Cyclobutyl-5-(3-difluoromethyl-phenyl)-6-methyl-4-oxo-1,4-dihydro-pyridine-3-carboxylic acid (5-methyl-[1,3,4]oxadiazol-2-ylmethyl)-amide]  7.26
4. Cc1c(-c2ccnc(C(F)(F)F)c2)c(=O)c(C(=O)NCc2ccc([S+](C)[O-])cc2)cn1C(C)C (centres unmarked) [Example 27.2, 1-Isopropyl-2-methyl-4-oxo-2′-trifluoromethyl-1,4-dihydro-[3,4′]bipyridinyl-5-carboxylic acid 4-methanesulfinyl-benzylamide]  7.29
5. CCC(CC)n1cc(C(=O)NCc2ccc(S(C)(=O)=O)cn2)c(=O)c(-c2ccnc(C(F)(F)F)c2)c1C [Example 23.3, 1-(1-Ethyl-propyl)-2-methyl-4-oxo-2′-trifluoromethyl-1,4-dihydro-[3,4]bipyridinyl-5-carboxylic acid (5-methanesulfonyl-pyridin-2-ylmethyl)-amide]  7.34
6. COCCn1cc(C(=O)NCc2ccc(S(C)(=O)=O)cn2)c(=O)c(-c2cccc(C(F)(F)F)c2)c1C [Example 21, 1-(2-Methoxy-ethyl)-6-methyl-4-oxo-5-(3-trifluoromethyl-phenyl)-1,4-dihydro-pyridine-3-carboxylic acid (5-methanesulfonyl-pyridin-2-ylmethyl)-amide]  7.37
7. CC[C@@H](C)n1cc(C(=O)NCc2nnc(C)o2)c(=O)c(-c2cccc(C(F)(F)F)c2)c1C [Example 25.1, (R)-1-sec-Butyl-6-methyl-4-oxo-5-(3-trifluoromethyl-phenyl)-1,4-dihydro-pyridine-3-carboxylic acid (5-methyl-[1,3,4]oxadiazol-2-ylmethyl)-amide]  7.43
8. CC[C@@H](C)n1cc(C(=O)NCc2nnc(C)o2)c(=O)c(-c2cccc(C(F)F)c2)c1C [Example 25.2, (R)-1-sec-Butyl-5-(3-difluoromethyl-phenyl)-6-methyl-4-oxo-1,4-dihydro-pyridine-3-carboxylic acid (5-methyl-[1,3,4]oxadiazol-2-ylmethyl)-amide]  7.52
9. Cc1c(-c2cccc(C(F)(F)F)c2)c(=O)c(C(=O)NCc2ccc(S(C)(=O)=O)cn2)cn1C1CCOC1 (centres unmarked) [Example 22, 6-Methyl-4-oxo-1-(tetrahydro-furan-3-yl)-5-(3-trifluoromethyl-phenyl)-1,4-dihydro-pyridine-3-carboxylic acid (5-methanesulfonyl-pyridin-2-ylmethyl)-amide]  7.57
10. Cc1cc(CNC(=O)c2cn(C(C)C)c(C)c(-c3ccnc(C(F)(F)F)c3)c2=O)ccc1S(C)(=O)=O [Example 28.3, 1-Isopropyl-2-methyl-4-oxo-2′-trifluoromethyl-1,4-dihydro-[3,4]bipyridinyl-5-carboxylic acid 4-methanesulfonyl-3-methyl-benzylamide]  7.57
11. Cc1c(-c2cccc(C(F)(F)F)c2)c(=O)c(C(=O)NCc2ccc(S(C)(=O)=O)cc2F)cn1C(C)C [Example 34, 1-Isopropyl-6-methyl-4-oxo-5-(3-trifluoromethyl-phenyl)-1,4-dihydro-pyridine-3-carboxylic acid 2-fluoro-4-methanesulfonyl-benzylamide]  7.59
12. CC[C@H](C)n1cc(C(=O)NCc2nnc(C)o2)c(=O)c(-c2cccc(C(F)F)c2)c1C [Example 26, (S)-1-sec-Butyl-5-(3-difluoromethyl-phenyl)-6-methyl-4-oxo-1,4-dihydro-pyridine-3-carboxylic acid (5-methyl-[1,3,4]oxadiazol-2-ylmethyl)-amide]  7.66
13. Cc1cc(S(C)(=O)=O)ccc1CNC(=O)c1cn(C(C)C)c(C)c(-c2cccc(C(F)(F)F)c2)c1=O [Example 36, 1-Isopropyl-6-methyl-4-oxo-5-(3-trifluoromethyl-phenyl)-1,4-dihydro-pyridine-3-carboxylic acid 4-methanesulfonyl-2-methyl-benzylamide]  7.72
14. Cc1c(-c2cccc(C(F)F)c2)c(=O)c(C(=O)NCc2ccc(S(C)(=O)=O)cc2F)cn1C(C)C [Example 35, 5-(3-Difluoromethyl-phenyl)-1-isopropyl-6-methyl-4-oxo-1,4-dihydro-pyridine-3-carboxylic acid 2-fluoro-4-methanesulfonyl-benzylamide]  7.77
15. Cc1c(-c2cccc(C(F)F)c2)c(=O)c(C(=O)NCc2ccc(S(C)(=O)=O)c(F)c2)cn1C(C)C [Example 33, 5-(3-Difluoromethyl-phenyl)-1-isopropyl-6-methyl-4-oxo-1,4-dihydro-pyridine-3-carboxylic acid 3-fluoro-4-methanesulfonyl-benzylamide]  7.80
16. Cc1c(-c2ccnc(C(F)(F)F)c2)c(=O)c(C(=O)NCc2ccc3c(c2)CCS3(=O)=O)cn1C(C)C [Example 29.3, 1-Isopropyl-2-methyl-4-oxo-2′-trifluoromethyl-1,4-dihydro-[3,4]bipyridinyl-5-carboxylic acid (1,1-dioxo-2,3-dihydro-1H-1λ^6-benzo[b]thiophen-5-ylmethyl)-amide]  7.82
17. Cc1c(-c2cccc(C(F)(F)F)c2)c(=O)c(C(=O)NCc2ccc(S(C)(=O)=O)c(F)c2)cn1C(C)C [Example 32, 1-Isopropyl-6-methyl-4-oxo-5-(3-trifluoromethyl-phenyl)-1,4-dihydro-pyridine-3-carboxylic acid 3-fluoro-4-methanesulfonyl-benzylamide]  7.82
18. CCS(=O)(=O)c1ccc(CNC(=O)c2cn(C(C)C)c(C)c(-c3cccc(C(F)(F)F)c3)c2=O)cc1 [Example 30.1, 1-Isopropyl-6-methyl-4-oxo-5-(3-trifluoromethyl-phenyl)-1,4-dihydro-pyridine-3-carboxylic acid 4-ethanesulfonyl-benzylamide]  7.89
19. CCC(CC)n1cc(C(=O)NCc2ccc(S(C)(=O)=O)cn2)c(=O)c(-c2cccc(C(F)(F)F)c2)c1C [Example 23.1, 1-(1-Ethyl-propyl)-6-methyl-4-oxo-5-(3-trifluoromethyl-phenyl)-1,4-dihydro-pyridine-3-carboxylic acid (5-methanesulfonyl-pyridin-2-ylmethyl)-amide]  7.92
20. CCc1c(-c2cccc(C(F)(F)F)c2)c(=O)c(C(=O)NCc2ccc(S(=O)(=O)CC)cc2)cn1C(C)C [Example 30.2, 6-Ethyl-1-isopropyl-4-oxo-5-(3-trifluoromethyl-phenyl)-1,4-dihydro-pyridine-3-carboxylic acid 4-ethanesulfonyl-benzylamide]  7.96
21. Cc1cc(CNC(=O)c2cn(C(C)C)c(C)c(-c3cccc(C(F)(F)F)c3)c2=O)ccc1S(C)(=O)=O [Example 28.1, 1-Isopropyl-6-methyl-4-oxo-5-(3-trifluoromethyl-phenyl)-1,4-dihydro-pyridine-3-carboxylic acid 4-methanesulfonyl-3-methyl-benzylamide]  8.15
22. Cc1cc(CNC(=O)c2cn(C(C)C)c(C)c(-c3cccc(C(F)F)c3)c2=O)ccc1S(C)(=O)=O [Example 28.2, 5-(3-Difluoromethyl-phenyl)-1-isopropyl-6-methyl-4-oxo-1,4-dihydro-pyridine-3-carboxylic acid 4-methanesulfonyl-3-methyl-benzylamide]  8.22
23. Cc1c(-c2cccc(C(F)(F)F)c2)c(=O)c(C(=O)NCc2ccc(S(=O)(=O)C3CC3)cc2)cn1C(C)C [Example 31, 1-Isopropyl-6-methyl-4-oxo-5-(3-trifluoromethyl-phenyl)-1,4-dihydro-pyridine-3-carboxylic acid 4-cyclopropanesulfonyl-benzylamide]  8.28
24. CCC(CC)n1cc(C(=O)NCc2ccc(S(C)(=O)=O)cn2)c(=O)c(-c2cccc(C(F)F)c2)c1C [Example 23.2, 5-(3-Difluoromethyl-phenyl)-1-(1-ethyl-propyl)-6-methyl-4-oxo-1,4-dihydro-pyridine-3-carboxylic acid (5-methanesulfonyl-pyridin-2-ylmethyl)-amide]  8.30
25. Cc1c(-c2cccc(C(F)(F)F)c2)c(=O)c(C(=O)NCc2ccc3c(c2)CCS3(=O)=O)cn1C(C)C [Example 29.1, 1-Isopropyl-6-methyl-4-oxo-5-(3-trifluoromethyl-phenyl)-1,4-dihydro-pyridine-3-carboxylic acid (1,1-dioxo-2,3-dihydro-1H-1λ^6-benzo[b]thiophen-5-ylmethyl)-amide]  8.40
26. Cc1c(-c2cccc(C(F)F)c2)c(=O)c(C(=O)NCc2ccc3c(c2)CCS3(=O)=O)cn1C(C)C [Example 29.2, 5-(3-Difluoromethyl-phenyl)-1-isopropyl-6-methyl-4-oxo-1,4-dihydro-pyridine-3-carboxylic acid (1,1-dioxo-2,3-dihydro-1H-1λ^6-benzo[b]thiophen-5-ylmethyl)-amide]  8.52
